The subject of assay [1] is Gram-positive, Gram-negative, and Mycobacteria. Kind of assay: Growth curves in BHI culture with liptin 3e. Format: cell-based. The text has this:
Growth curves were generated from liquid shake-flask cultures using absorbance measurements at 600 nm at different concentrations of liptin 3e. Uninoculated control flasks were used as blanks. Absorbance values of 0.1 OD unit was considered reasonable threshold for positive growth. […] Liptin exposure appears to stop bacterial growth, as evidenced by long lag phases, which increase with liptin concentration. In most cases, cultures recover, but growth rates and maximum cell densities are decreased with liptin treatment.
Bacterial growth rates were reduced by liptin 3e treatment in a concentration-dependent manner. Rates were determined as the slope of the log phase of the growth curve, after the lag phase. An exponential relationship exists with marginally significant differences (p<0.1).
Maximum culture densities represent the carrying capacity of a culture flask.

In assay [2] the test system is Enterococcus faecalis 29213. Kind of assay: MIC in LB culture. Format: cell-based. As to the method:
Strep fuecalis (aka Enterococcus faecalis 29213) cultures were prepared the same way as S. aureus, and analyzed as above. […] The OD600 of the control was 0.72. […] See photos for visual representation. See FIG. 11D for a visual image of the S. fuecalis cultures.

In assay [3] the test system is S. aureus (33186). The assay can be described thus: Serial passage resistance experiment. Format: cell-based. Particulars: 0.5 MIC, LB, 37° C., 80-100 generations. The text has this:
(§1) Triplicate serial passage experiments were undertaken with E. coli (MC4100), S. aureus (33186) and E. feucalis (29213).

The test system of assay [4] is E. feucalis (29213). The assay can be described thus: Serial passage resistance experiment. In kind it is cell-based. Particulars: 0.5 MIC, LB, 37° C., 80-100 generations.
From the text: as §1

Assay [5] deals with E. coli (MC4100). The assay can be described thus: Serial passage resistance experiment. In kind it is cell-based. Particulars: 0.5 MIC, LB, 37° C., 80-100 generations.
From the text: as §1

Assay [6] can be described thus: Carboxyfluorescein efflux from pure PG vesicles. Particulars: room temperature, after three hours. Format: biochemical. How it is done: Liptin/bilayer interactions were evaluated using conventional efflux measurements. These experiments make use of the self-quenching fluorescence of carboxyfluorescein. At relatively high concentrations (ca. 50 mM) the fluorescence from carboxyfluorescein is diminished by approximately 70% due to intermolecular interactions.
To perform efflux experiments vesicles were prepared by rehydrating a film of pure DPPG with a 50 mM solution of carboxyfluorescein in buffer. The solution was then extruded through a polycarbonate membrane with 200 nm pore size. […] Under these conditions, as the dye leaves the vesicles by efflux, fluorescence intensity increases. Monitoring the fluorescence intensity over time provides a measure of the rate at which dye crosses the membrane and an indication of the “leakiness” of the vesicle bilayer. Efflux can be expressed as % Efflux by the following expression:
[formula] where F0 is the fluorescence intensity corresponding to the initial sample when efflux first begins and F∞ is the intensity after efflux is complete and is determined by rupturing the vesicles by the addition of a small amount of concentrated detergent. F(t) is the fluorescence intensity measured as the efflux occurs. […]

Assay [7] deals with S. aureus (33186). Kind of assay: Bactericidal (MBC) experiment, LB plates. Format: cell-based. Particulars: 5 μM, overnight culture then LB plate 16 hours. As to the method:
(§2) Cultures (5 mL) starting at 0.001 OD were grown overnight at 37° C. with different concentrations of […], and then a sample of culture was added to an LB plate and then it was incubated for 16 hours at 37° C. […] All experiments were done in triplicate, including control.

Assay [8] has as its system E. feucalis (29213). Kind of assay: Bactericidal (MBC) experiment, LB plates. Format: cell-based. Particulars: overnight culture then LB plate 16 hours. How it is done:
as §2

Assay [9] concerns E. coli (MC4100). The assay can be described thus: Bactericidal (MBC) experiment, LB plates. Particulars: overnight culture then LB plate 16 hours. In kind it is cell-based. As to the method: as §2
Assay [10] relates to S. aureus plasma membrane. Kind of assay: Plasma membrane depolarization, DiS-C2(5) fluorescence. In kind it is cell-based. Particulars: 0.69-2.6 μM added at 90 s. How it is done:
The graph in FIGS. 15A-15C represents the depolarization of S. aureus plasma membrane measured by an increase in the fluorescence of 3,3-diethylthiodicabodyanine iodide. The dye, which has direct access to the Gram-positive plasma membrane, becomes highly fluorescent in membranes where polarization is lost. […] The membrane effects were measured against the known membrane-disruptive agent, cationic steroid antimicrobial-25 (CSA-25), one of a group of cholic acid-derived antimicrobial also known as ceragenins. This assay measured the effects of the Ammonium-picket porphyrin alone those of CSA-25 alone or a combination of Ammonium-picket porphyrin and CSA-25.
Bacterial cultures were grown overnight in TSB at 37° C. Cells were harvested by centrifugation and washed in a buffer containing 250 mM sucrose, 5 mM MgSO4, and 10 mM potassium phosphate (pH 7.0). After three washings, pellets were re-suspended in the same buffer. […] Fluorescence measurements were taken at 30-s intervals before and after addition of ceragenins. FIG. 15A illustrates the depolarization of S. aureus measured by an increase in fluorescence of 3,3′ diethylthiodicarbodyanine iodide (DiS-C2(5)). […]
FIG. 15B illustrates the depolarization of S. aureus measured by an increase in fluorescence of 3,3′ diethylthiodicarbodyanine iodide. […]

A short description of assay [11]: Liptin-PG binding in solution (ITC and/or 1H NMR titration). Particulars: ITC; 50% DMSO, 45% CHCl3, 5% CH3OH. How it is done:
The lipid binding ability of liptins 1-3 (FIG. 2A) have been investigated in solution using isothermal titration calorimetry (ITC) and/or ^1H NMR. Stoichiometry of binding was accomplished with Job plots using ^1H NMR. […] The use of organic solvents allowed the determination of binding motif using ^1H NMR.
Liptins 1b, 1e, 2c, 2d, 3a, 3c in DMF/5% CHCl3; 3e in 50% DMSO, 45% CHCl3, 5% CH3OH.
Liptins 1h and 1i 40% DMSO, 60% CHCl3, 3f in 20% DMSO, 80% CHCl3.

[12] abbreviates: E. coli and S. aureus, concentration-dependent.

Data on one compound can be found in US10668048B2, “Compounds for inhibiting bacterial growth via phosphatidylglycerol binding” (Wichita State University, priority 2016, dated 2020).

Molecules are shown by their SMILES.

With `NCC(=O)Nc1ccccc1-c1c2nc(c(-c3ccccc3NC(=O)CN)c3ccc([nH]3)c(-c3ccccc3NC(=O)CN)c3nc(c(-c4ccccc4NC(=O)CN)c4ccc1[nH]4)C=C3)C=C2.O=C(O)C(F)(F)F.O=C(O)C(F)(F)F.O=C(O)C(F)(F)F.O=C(O)C(F)(F)F` [Liptin 3e], the bacterial growth rates result in assay [1] (setting [12]) was “reduces bacterial growth rates”. Besides, in assay [1] (setting [12]), the maximum culture density entry is on record as “decreases maximum culture density”. Besides, in assay [1] (one inoculation, BHI), the “antibacterial activity from growth curves” value is listed as “highly bacteriostatic activity”. In assay [2], the “effect on bacterial growth” value is “inhibits bacterial growth”. The “MIC after 15 serial passages” value in [3], in [4] and in assay [5] was “no different than initial MICs” throughout. Also, the “% Efflux of carboxyfluorescein” value in [6] is 5%. In addition, the bactericidal effect entry in [7] is given as “strong bactericidal effects”. Further, the “MBC (concentration with low or no growth on LB plates)” value in assay [8] and in [9] was “much more than four times the MIC concentrations” in each case. The “depolarization: fluorescence of 3,3-diethylthiodicabodyanine iodide” value in [10] is on record as “increased in a concentration-dependent manner”. The same compound yielded a Ka in [11] of 2800 M⁻¹.
